One data set addresses T1, AXL (Homo sapiens, UniProt P30530).
T1 sequence (P30530 26-894): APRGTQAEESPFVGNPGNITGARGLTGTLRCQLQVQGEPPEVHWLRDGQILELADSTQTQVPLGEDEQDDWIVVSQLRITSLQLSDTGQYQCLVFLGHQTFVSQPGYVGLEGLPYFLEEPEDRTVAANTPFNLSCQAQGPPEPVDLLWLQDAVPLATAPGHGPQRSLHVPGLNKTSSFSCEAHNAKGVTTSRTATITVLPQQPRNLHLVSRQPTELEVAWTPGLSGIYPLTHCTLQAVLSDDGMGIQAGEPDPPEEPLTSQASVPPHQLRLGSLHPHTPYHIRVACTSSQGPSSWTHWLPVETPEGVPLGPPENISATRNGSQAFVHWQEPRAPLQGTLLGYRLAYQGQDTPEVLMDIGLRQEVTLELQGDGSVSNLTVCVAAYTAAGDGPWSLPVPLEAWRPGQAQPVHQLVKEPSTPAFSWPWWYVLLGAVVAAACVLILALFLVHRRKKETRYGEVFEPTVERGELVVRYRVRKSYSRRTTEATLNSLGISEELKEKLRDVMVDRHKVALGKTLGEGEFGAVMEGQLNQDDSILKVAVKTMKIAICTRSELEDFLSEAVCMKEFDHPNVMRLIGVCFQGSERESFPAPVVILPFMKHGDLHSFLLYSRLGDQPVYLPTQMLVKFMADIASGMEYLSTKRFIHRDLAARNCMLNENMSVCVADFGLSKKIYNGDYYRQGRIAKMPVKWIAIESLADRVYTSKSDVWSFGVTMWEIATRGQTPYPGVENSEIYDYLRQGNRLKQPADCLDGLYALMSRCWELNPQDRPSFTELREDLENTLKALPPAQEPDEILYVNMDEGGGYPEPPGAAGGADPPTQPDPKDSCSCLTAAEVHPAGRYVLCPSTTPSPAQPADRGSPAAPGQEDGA
Description: biochemical. The following applies: read-out: Percent control.

In another data set the target is T2, EPHA1 (Homo sapiens, UniProt P21709).
T2 sequence (P21709 26-976): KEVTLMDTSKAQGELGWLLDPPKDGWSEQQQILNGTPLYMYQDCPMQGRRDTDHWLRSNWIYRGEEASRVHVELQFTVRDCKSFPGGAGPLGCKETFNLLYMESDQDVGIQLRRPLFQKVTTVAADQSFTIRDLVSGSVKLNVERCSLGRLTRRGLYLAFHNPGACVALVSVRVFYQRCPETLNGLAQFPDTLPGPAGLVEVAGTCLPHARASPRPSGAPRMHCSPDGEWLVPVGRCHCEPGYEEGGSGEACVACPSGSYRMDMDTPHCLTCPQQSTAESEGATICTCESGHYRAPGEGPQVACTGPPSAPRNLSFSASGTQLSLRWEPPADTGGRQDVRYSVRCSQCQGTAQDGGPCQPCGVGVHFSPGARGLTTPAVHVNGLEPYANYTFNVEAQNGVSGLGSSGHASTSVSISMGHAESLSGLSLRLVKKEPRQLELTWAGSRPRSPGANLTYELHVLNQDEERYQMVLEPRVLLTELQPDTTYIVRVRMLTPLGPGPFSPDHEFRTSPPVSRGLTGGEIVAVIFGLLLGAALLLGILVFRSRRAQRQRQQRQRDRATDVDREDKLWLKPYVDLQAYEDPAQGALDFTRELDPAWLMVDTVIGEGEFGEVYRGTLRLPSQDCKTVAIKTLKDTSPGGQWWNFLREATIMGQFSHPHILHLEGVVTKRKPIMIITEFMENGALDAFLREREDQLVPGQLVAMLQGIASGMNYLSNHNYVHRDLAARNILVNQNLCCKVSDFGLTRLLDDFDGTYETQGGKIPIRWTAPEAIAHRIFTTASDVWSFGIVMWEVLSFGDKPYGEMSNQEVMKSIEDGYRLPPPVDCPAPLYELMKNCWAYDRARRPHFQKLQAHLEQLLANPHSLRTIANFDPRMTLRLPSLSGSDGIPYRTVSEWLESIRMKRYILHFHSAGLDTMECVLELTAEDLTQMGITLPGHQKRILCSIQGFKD
The data set is described as follows: biochemical. The following applies: read-out: Percent control.

For the next data set, the system named is HEK293 Mock transfected. Description: Anticancer activity in mock transfected HEK293. The class given is cell-based. The following applies: Bcr-Abl negative.
In data set [1] the target is T3, EGFR (Homo sapiens, UniProt P00533). The note with it: 10 μM.
The next data set concerns the target T4, TIE1 (Homo sapiens, UniProt P35590).
T4 construct: purchased DiscoveRx (KINOMEscan service)
It counts as binding. The following applies: 10 μM.

Another data set addresses EGFR(L861Q) (Homo sapiens, UniProt P00533, L861Q). The following applies: 10 μM.
Data set [2] has as its target ABL1(Q252H)-phosphorylated (Homo sapiens, UniProt P00519, Q252H). Description: biochemical. The note with it: read-out: Percent control.
In data set [3] the target is ABL1(T315I)-phosphorylated (Homo sapiens, UniProt P00519, T315I). The data set is described as follows: biochemical. The following applies: read-out: Percent control.
The target in another data set is ABL1-nonphosphorylated (Homo sapiens, UniProt P00519). Description: biochemical. The following applies: read-out: Percent control.
For another data set, the target named is ABL1-phosphorylated (Homo sapiens, UniProt P00519). Description: biochemical. The note with it: read-out: Percent control.
Data set [4] concerns the target ABL1(H396P)-nonphosphorylated (Homo sapiens, UniProt P00519, H396P). Description: biochemical. The note with it: read-out: Percent control.
Another data set addresses P-gp (Homo sapiens, UniProt P08183). Description: in vitro. The following applies: dog, MDCK-MDR1, pH 7.4.
The next data set concerns the target RET (Homo sapiens, UniProt P07949). The data set is described as follows: biochemical. The following applies: read-out: Percent control.
Data set [5] has as its target ABL1(Y253F)-phosphorylated (Homo sapiens, UniProt P00519, Y253F). The following applies: 10 μM.
Data set [6] concerns the target ABL1(E317I)-nonphosphorylated (Homo sapiens, UniProt P00519, F317I). The note with it: 10 μM.
Data set [7] deals with ABL1(H396P)-phosphorylated (Homo sapiens, UniProt P00519, H396P). The note with it: 10 μM.
The target in data set [8] is ABL1(E255K)-phosphorylated (Homo sapiens, UniProt P00519, E255K). The note with it: 10 μM.
Data set [9] deals with T3, EGFR. The data set is described as follows: biochemical. The following applies: read-out: Percent control.

From publication PMC4858680, “A platinum-based hybrid drug design approach to circumvent acquired resistance to molecular targeted tyrosine kinase inhibitors” (Scientific Reports, 2016) come the findings set out here.

T3 sequence (P00533 25-1210): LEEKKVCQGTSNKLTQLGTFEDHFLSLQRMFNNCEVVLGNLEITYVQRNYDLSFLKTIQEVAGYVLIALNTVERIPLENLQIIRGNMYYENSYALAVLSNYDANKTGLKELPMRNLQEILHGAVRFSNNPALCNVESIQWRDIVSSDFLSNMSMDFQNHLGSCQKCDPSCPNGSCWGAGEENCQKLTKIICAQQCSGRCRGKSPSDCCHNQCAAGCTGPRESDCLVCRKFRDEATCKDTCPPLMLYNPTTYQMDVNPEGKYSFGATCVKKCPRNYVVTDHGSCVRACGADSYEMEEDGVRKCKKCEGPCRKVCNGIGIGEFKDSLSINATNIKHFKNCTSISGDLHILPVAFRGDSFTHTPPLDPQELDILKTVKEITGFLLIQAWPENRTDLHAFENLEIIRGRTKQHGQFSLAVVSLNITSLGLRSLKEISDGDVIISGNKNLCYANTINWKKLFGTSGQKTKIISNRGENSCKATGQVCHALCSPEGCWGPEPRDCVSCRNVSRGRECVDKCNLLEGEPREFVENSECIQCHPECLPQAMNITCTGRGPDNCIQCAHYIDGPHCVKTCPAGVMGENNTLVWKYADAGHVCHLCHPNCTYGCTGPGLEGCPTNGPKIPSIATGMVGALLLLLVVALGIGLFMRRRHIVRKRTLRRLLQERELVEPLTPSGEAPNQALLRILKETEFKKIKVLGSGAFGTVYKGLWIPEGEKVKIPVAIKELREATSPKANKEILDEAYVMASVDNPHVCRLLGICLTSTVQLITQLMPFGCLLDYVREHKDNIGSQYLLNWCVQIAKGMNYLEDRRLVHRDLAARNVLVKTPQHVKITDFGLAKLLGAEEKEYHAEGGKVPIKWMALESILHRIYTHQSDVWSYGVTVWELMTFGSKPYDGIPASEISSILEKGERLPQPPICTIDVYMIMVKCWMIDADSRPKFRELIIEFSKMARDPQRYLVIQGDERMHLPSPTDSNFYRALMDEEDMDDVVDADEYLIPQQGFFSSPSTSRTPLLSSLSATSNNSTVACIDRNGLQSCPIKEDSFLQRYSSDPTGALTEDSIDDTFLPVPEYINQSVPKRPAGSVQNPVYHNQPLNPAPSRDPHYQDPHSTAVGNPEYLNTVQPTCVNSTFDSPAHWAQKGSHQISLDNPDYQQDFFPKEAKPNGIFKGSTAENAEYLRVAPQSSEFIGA
Chain of P-gp (P08183 whole entry): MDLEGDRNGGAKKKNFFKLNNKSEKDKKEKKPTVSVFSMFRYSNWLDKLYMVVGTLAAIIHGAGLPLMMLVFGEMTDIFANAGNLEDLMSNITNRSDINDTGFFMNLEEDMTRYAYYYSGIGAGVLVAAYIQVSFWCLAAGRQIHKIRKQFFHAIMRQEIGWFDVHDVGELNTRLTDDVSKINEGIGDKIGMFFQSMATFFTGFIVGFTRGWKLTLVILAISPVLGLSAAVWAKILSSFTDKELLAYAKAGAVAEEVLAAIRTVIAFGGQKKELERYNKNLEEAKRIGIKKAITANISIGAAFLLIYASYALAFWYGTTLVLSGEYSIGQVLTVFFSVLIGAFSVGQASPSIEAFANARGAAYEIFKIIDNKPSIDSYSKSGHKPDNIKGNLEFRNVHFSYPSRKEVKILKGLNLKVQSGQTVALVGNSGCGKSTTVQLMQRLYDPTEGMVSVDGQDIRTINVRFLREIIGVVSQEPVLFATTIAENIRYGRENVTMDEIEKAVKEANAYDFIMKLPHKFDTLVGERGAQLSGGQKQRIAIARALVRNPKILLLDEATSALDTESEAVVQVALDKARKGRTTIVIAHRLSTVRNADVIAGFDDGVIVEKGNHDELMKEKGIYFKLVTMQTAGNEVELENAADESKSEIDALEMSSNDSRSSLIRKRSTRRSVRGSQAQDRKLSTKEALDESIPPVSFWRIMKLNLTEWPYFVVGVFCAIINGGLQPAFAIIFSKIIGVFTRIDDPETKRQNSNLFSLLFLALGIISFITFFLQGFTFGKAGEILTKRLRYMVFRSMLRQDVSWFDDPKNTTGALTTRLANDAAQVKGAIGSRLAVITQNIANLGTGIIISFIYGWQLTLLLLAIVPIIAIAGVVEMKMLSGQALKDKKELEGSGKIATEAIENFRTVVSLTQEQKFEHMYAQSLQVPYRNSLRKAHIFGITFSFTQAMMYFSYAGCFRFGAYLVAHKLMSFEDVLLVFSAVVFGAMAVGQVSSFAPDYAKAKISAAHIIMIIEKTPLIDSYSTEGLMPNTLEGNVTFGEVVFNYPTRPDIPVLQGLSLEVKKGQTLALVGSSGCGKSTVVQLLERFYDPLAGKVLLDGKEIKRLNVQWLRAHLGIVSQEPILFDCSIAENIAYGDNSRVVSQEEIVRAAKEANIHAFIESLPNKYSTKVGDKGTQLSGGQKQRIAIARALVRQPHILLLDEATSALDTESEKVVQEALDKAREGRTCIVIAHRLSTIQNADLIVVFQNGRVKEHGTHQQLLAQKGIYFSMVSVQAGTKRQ
T4 sequence (P35590 22-1138): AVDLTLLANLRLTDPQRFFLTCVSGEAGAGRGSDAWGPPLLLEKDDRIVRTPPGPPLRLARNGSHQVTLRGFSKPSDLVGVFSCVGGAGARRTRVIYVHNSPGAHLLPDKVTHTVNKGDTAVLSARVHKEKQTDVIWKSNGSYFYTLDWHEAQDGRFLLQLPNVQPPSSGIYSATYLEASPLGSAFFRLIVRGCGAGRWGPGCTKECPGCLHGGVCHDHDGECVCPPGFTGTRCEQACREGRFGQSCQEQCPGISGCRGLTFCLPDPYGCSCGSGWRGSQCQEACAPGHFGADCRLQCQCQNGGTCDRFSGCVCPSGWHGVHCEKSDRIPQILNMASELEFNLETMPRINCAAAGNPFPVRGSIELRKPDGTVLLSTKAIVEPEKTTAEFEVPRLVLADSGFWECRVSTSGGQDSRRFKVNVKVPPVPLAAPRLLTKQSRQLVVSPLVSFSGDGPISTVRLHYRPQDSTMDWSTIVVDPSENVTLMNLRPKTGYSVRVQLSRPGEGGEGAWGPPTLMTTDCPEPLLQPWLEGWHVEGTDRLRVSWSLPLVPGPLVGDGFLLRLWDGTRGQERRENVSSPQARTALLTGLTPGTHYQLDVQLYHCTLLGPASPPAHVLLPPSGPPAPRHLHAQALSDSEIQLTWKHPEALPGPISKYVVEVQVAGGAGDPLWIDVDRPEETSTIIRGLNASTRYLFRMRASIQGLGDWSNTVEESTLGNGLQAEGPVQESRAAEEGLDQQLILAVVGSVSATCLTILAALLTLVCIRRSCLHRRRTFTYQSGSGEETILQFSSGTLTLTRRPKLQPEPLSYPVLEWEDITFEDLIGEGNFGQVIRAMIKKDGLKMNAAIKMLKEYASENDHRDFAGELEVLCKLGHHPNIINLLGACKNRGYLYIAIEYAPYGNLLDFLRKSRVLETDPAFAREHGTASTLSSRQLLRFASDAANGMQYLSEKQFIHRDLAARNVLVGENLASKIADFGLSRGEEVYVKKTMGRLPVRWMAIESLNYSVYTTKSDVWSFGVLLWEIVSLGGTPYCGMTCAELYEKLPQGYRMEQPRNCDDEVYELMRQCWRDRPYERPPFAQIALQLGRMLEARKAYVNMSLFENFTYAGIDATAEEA
Chain of RET (P07949 29-1114): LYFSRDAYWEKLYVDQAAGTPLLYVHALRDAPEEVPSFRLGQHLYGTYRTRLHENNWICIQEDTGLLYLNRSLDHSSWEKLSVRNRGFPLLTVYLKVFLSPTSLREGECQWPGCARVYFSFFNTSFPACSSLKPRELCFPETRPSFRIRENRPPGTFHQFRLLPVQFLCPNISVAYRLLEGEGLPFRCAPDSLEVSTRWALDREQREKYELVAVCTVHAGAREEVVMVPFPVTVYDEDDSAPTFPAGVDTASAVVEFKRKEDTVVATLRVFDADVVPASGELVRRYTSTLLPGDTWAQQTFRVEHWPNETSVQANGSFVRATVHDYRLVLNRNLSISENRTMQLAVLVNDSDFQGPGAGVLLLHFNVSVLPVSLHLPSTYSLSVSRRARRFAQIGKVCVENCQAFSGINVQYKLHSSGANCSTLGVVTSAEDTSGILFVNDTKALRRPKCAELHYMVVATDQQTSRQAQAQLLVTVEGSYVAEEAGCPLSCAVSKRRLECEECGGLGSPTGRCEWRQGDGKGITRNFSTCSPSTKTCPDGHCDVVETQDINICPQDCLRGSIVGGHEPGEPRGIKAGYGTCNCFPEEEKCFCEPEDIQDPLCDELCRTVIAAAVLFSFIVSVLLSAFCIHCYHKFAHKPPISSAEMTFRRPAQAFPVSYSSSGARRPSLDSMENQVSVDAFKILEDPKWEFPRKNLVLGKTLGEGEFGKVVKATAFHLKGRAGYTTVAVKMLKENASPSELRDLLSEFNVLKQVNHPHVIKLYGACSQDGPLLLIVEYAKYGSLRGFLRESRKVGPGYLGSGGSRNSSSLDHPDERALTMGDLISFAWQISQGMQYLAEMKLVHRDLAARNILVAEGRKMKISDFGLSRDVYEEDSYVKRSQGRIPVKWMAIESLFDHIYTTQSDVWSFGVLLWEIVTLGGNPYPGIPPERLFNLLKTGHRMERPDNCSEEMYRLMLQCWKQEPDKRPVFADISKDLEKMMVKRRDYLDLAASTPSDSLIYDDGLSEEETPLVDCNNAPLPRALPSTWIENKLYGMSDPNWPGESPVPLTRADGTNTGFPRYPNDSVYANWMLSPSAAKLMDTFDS

`COc1cc2c(Nc3ccc(Br)cc3F)ncnc2cc1OCC1CCN(C)CC1` [Vandetanib, reference compound]: the remaining activity at 10 µM at AXL worked out at 2.4%; on EPHA1, 2.2%.
As a reminder, the IC50 is the concentration needed to halve the response being measured. A higher IC50 goes with weaker potency in that assay. Molecule `Cc1ccc(NC(=O)c2ccc(CN3CCN(C)CC3)cc2)cc1Nc1nccc(-c2cccnc2)[n+]1[Pt-2]1([Cl])[NH2+]C2CCCCC2[NH2+]1` (stereo not shown) [1b, oxaliplatin-imatinib] had an IC50 with HEK293 Mock transfected of 10.6 ± 1.58 µM. For the same molecule, the Percent control turned out to be 89% at EGFR [1], 100% at TIE1 and 42% on EGFR(L861Q).
For orientation: Papp A→B means how fast a substance crosses the layer from the apical side. As usually defined, the Papp B→A is how fast a substance crosses the layer from the basolateral side. As for `C#Cc1cccc(Nc2ncnc3cc(OCCOC)c(OCCOC)cc23)c1` [Erlotinib], the remaining activity at 10 µM in [2] is 0.6%; in data set [3], 0.6%; at ABL1-nonphosphorylated, 3.2%; at ABL1-phosphorylated, 0.8%; in [4] it was 0.9%; on RET, 11.5%. Further, the Papp A→B at 120 min, 10 μM at P-gp was found to be 18.4 ×10⁻⁶ cm/s. Also, at P-gp, the Papp B→A at 120 min, 10 μM was 74.2 ×10⁻⁶ cm/s.
As to `C#Cc1cccc(Nc2c3cc(OCCOC)c(OCCOC)cc3nc[n+]2[Pt@SP2-2]([NH3+])([NH3+])[Cl])c1` [2a, cisplatin-erlotinib], the Percent control in [5] is 16%; in [6], 83%; in [7], 13%; in data set [8] it was 9.9%.
As to `Cc1ccc(NC(=O)c2ccc(CN3CCN(C)CC3)cc2)cc1Nc1nccc(-c2cccnc2)n1` [Imatinib, reference compound], the remaining activity at 10 µM on EGFR [9] was 100%.
